“Also recorded” adds a separate entry of the source.
Legend:
NLRP3, NLRC4 = settings: approximate inhibitory concentration, literature; cited from earlier work
NLRP3 [1] = settings: approximate inhibitory concentration, literature; cited from earlier work
CYP3A4 = target: T1, CYP3A4 (Homo sapiens, UniProt P08684); assay: Cytochrome P450 inhibition; format: in vitro ADME; settings: probe midazolam (1′-hydroxylation), pooled human liver microsomes 0.25 mg/mL, read-out: CYP inhibition (% at 10 μM) 3A4
T1 construct: pooled human liver microsomes were assayed at 0.25 mg/mL concentration; from tissue; host or cells: pooled human liver microsomes
Experimental: (§1) The inhibitory effects of NIC7 and NIC7w on the metabolism of the five major P450 probe substrates were evaluated using a previously reported method (S. Seino, Diabetologia 55, 2096-2108 (2012)) with minor modifications. A cocktail of substrates (phenacetin O-deethylase, tolbutamide 4-hydroxylase, mephenytoin 4-hydroxylase, dextromethorphan O-demethylase, and midazolam 1′-hydroxylase) was used for five major P450 enzymes, CYP1A2, CYP2C9, CYP2C19, CYP2D6, and CYP3A4, respectively. NIC7 and NIC7w were prepared at a concentration of 10 mM in DMSO and dissolved in methanol at a concentration of 1 mM. In all experiments, the final concentration of an organic solvent (methanol) for cocktail incubation was set at 1.0% (v/v). Both NIC7 and NIC7w were used at 10 μM, and pooled human liver microsomes were assayed at 0.25 mg/mL concentration. The substrate cocktail solution was incubated with the microsomes for 5 min at 37° C. The reaction was initiated by adding an NADPH-generating system (the same as described in Examples 1-5) at 37° C. and 1300 rpm. The reaction was stopped at 10 min by the addition of cold acetonitrile containing carbamazepine as an internal standard at 20 ng/mL. After vortexing and centrifugation, the supernatant was analyzed with LC-MS/MS. All microsomal incubations were performed in triplicate.

CYP2C19 = target: T2, CYP2C19 (Homo sapiens, UniProt P33261); assay: Cytochrome P450 inhibition; format: in vitro ADME; settings: probe mephenytoin (4-hydroxylation), pooled human liver microsomes 0.25 mg/mL, read-out: CYP inhibition (% at 10 μM) 2C19
T2 construct: pooled human liver microsomes were assayed at 0.25 mg/mL concentration; from tissue; host or cells: pooled human liver microsomes
Experimental: as §1

CYP2C9 = target: T3, CYP2C9 (Homo sapiens, UniProt P11712); assay: Cytochrome P450 inhibition; format: in vitro ADME; settings: for CYP enzyme selectivity of inhibition: five P450 enzymes, 10 μM; for inhibition at 10 min, 10 µM: probe tolbutamide (4-hydroxylation), pooled human liver microsomes 0.25 mg/mL, tolbutamide, read-out: CYP inhibition (% at 10 μM) 2C9
T3 construct: pooled human liver microsomes were assayed at 0.25 mg/mL concentration; from tissue; host or cells: pooled human liver microsomes
Experimental: as §1

CYP2D6 = target: T4, CYP2D6 (Homo sapiens, UniProt P10635); assay: Cytochrome P450 inhibition; format: in vitro ADME; settings: probe dextromethorphan (O-demethylation), pooled human liver microsomes 0.25 mg/mL, read-out: CYP inhibition (% at 10 μM) 2D6
T4 construct: pooled human liver microsomes were assayed at 0.25 mg/mL concentration; from tissue; host or cells: pooled human liver microsomes
Experimental: as §1

CYP1A2 = target: T5, CYP1A2 (Homo sapiens, UniProt P05177); assay: Cytochrome P450 inhibition; format: in vitro ADME; settings: probe phenacetin (O-deethylation), pooled human liver microsomes 0.25 mg/mL, read-out: CYP inhibition (% at 10 μM) 1A2
T5 construct: pooled human liver microsomes were assayed at 0.25 mg/mL concentration; from tissue; host or cells: pooled human liver microsomes
T5 sequence (P05177 1-516): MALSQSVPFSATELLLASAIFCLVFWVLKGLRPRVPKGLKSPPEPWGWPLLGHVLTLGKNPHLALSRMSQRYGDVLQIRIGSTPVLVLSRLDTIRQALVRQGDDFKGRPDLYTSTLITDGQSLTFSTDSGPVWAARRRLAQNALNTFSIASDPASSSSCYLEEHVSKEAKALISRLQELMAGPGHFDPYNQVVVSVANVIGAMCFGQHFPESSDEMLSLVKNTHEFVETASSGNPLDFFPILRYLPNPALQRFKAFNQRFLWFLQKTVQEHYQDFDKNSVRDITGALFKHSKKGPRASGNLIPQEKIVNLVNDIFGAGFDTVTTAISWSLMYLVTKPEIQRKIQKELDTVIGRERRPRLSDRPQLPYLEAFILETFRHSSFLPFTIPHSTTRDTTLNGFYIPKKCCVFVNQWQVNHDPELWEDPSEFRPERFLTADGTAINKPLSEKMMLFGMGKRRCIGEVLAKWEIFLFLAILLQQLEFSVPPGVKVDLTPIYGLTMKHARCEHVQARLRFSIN
Experimental: as §1

[2] = tested on: NLRP3 signaling pathway (IL-1β, caspase 1); assay: Western blot of the NLRP3 signaling pathway; format: cell-based, human; settings: 10 μM, PMA-differentiated THP-1, LPS/nigericin
Experimental: Cytoplasmic proteins were extracted using NE-PERTM Nuclear and Cytoplasmic Extraction Reagent (Thermo Fisher Scientific, Inc.), and the total-protein was measured using a Bicinchoninic (BCA) assay kit (Sigma-Aldrich Co.). The proteins were separated by SDS-PAGE and transferred to a membrane using a Mini-PROTEAN Tetra Cell and Mini Trans-Blot Electrophoretic Transfer Cell System (Bio-Rad Laboratories, Hercules, CA, USA). The membranes were blocked with skim milk (5%) for 1 hour, and immunoblotted with antibodies against NLRP3, IL-1β, mature IL-1β (Cell Signaling Technology Inc., Danvers, MA, USA), caspase 1 and β-actin (Santa Cruz Biotechnology Inc., Dallas, TX, USA) at 4° C. overnight. After washing with PBS supplemented with 0.1% of Tween 20, the membranes were treated with a peroxidase-conjugated anti-rabbit or anti-mouse IgG antibody (1:1,000) for 2 hours at room temperature. The SuperSignal West Pico ECL solution (Thermo Fisher Scientific, Inc.) was used to detect protein bands that were visualized on a ChemiDocm Touch Imaging System (Bio-Rad Laboratories).

[3] = tested on: AD model mice (Aβ1-42 injected); assay: Novel object recognition test in AD model; format: in vivo, C57BL/6 mice; settings: vs vehicle-treated or untreated mice
Experimental: (§2) 6-week-old male C57BL/6 mice (19 to 22 g) were used, and 5 mice per cage were bred in a feedlot. To create an AD model, experimental animals were administered isoflurane by inhalation, and then injected with Aβ1-42 (5 μL) using a Hamilton microsyringe with a 26-gauge needle. The AD model mice were trained for 20 minutes/mouse for 2 days before the experimental procedure, and then subjected to Y-maze tests and novel object recognition tests (for cognitive evaluation). Behavioral evaluation was performed 7 days after Aβ1-42 injection. The animals were subdivided into AD, NIC7-treated, vehicle (DMSO)-treated, donepezil-treated (positive control) and normal (no-disease) groups. Cognitive evaluation was performed on days 7, 14, 21 and 28 after injection.
A novel object recognition test was performed in an open field box containing two identical objects. Animals were first familiarized with these identical objects for 2 minutes, and then one of the objects was replaced with a novel object, followed by reading for 5 minutes. The time spent with an identical object (tA) and the time spent with a novel object (tB) were calculated, and the recognition index ratio was calculated via the formula (tB/(tA+tB))×100.

[4] = tested on: AD model mice (Aβ1-42 injected); assay: Y-maze test in AD model (spatial working memory); format: in vivo, C57BL/6 mice; settings: 3 days/week, vs vehicle-treated and untreated mice
Experimental: as §2
The alteration in spatial cognitive behavior was assessed using a Y-maze apparatus with three horizontal identical arms (35 cm long×15 cm high×5 cm wide) symmetrically arranged at 120° to each other. The evaluation was performed in the Y-maze test 7 days after Aβ injection. After introduction into the Y-maze, each animal was allowed to move freely for 2 minutes and then measured for 5 minutes. The test subjects tended to enter an arm different from the arm they had previously visited. The number of arm entries and triads was recorded to calculate the percentage of alternation. […]

NLRP3 [5] = target: T6, NLRP3 (Homo sapiens, UniProt Q96P20); assay: Inhibition of NLRP3 by IL-1β secretion level (ELISA); format: cell-based; settings: PMA-differentiated THP-1, LPS (10 ng/mL) 4 hours, compound 1 hour, nigericin (10 μM) 1 hour
T6 construct: THP-1 cells (10^5/well) were differentiated with PMA (80 nM, 48 hours) in a 96-well plate; endogenous in cells; host or cells: PMA-differentiated, LPS-primed THP-1 cells
Experimental: THP-1 cells (10^5/well) were differentiated with PMA (80 nM, 48 hours) in a 96-well plate (BD Biosciences). The differentiated macrophages were primed with LPS (10 ng/mL) for 4 hours. Thereafter, the cells were treated with each compound for 1 hour in a serum-free medium, followed by activation of NLRP3 by nigericin for an additional 1 hour. The supernatant was collected and the inhibition of human IL-1β secretion was analyzed using the Human IL-1β Uncoated ELISA Kit (Thermo Fisher Scientific, Inc.). A microplate spectrophotometer system (Molecular Devices) was employed to read absorbance in the plate.

Body weight in AD model = format: in vivo, C57BL/6 mice; settings: NIC7 100 nmol/g intraperitoneally; compared to the untreated mice
Experimental: as §2

Microsomal stability = format: in vitro ADME, human; settings: for Microsomal stability (% at 30 min): Human liver microsomes 0.5 mg/mL, 1 μM compound, 37° C.
Experimental: Stock solutions of NIC7 and NIC7w were prepared at a concentration of 10 mM in DMSO, and were diluted to a concentration of 100 μM with 100% methanol as a working solution. These NIC7 and NIC7w solutions were diluted to a concentration of 1 μM with potassium phosphate buffer (pH 7.4), and then each solution was incubated with 0.5 mg/mL liver microsomes (human) at 37° C. for 5 minutes. The reaction was initiated by adding a NADPH-generating system (3.3 mM glucose-6-phosphate (G6P), 1.3 mM β-NADP^+, 3.3 mM MgCl2, and 0.4 U/mL glucose-6-phosphate dehydrogenase (G6PD)) at 37° C. The reaction was stopped at 0 and 30 minutes using cold acetonitrile containing carbamazepine as an internal standard at 20 ng/mL. After vortexing and centrifugation, the supernatant was analyzed with liquid chromatography with tandem mass spectrometry (LC-MS/MS). All microsomal assays were performed in duplicate.
After sample preparation, 0.1 mL acetonitrile containing 20 ng/mL internal standard was added to a 50 μL aliquot of each biological sample. After vortexing and centrifugation at 12,000 rpm for 10 minutes, 10 μL of the supernatant was analyzed with LC-MS/MS.
In the LC system, a reversed-phase C18 column (BEH C18, 2.1 mm×100 mm i.d., 1.7 μm; Waters, Ireland) was maintained at 4° C. The composition of the mobile phase was changed from 80% of 0.1% formic acid in water to 80% of 0.1% formic acid in acetonitrile for 3 minutes, and then switched to 80% of 0.1% formic acid in water for 3.1 minutes, and maintained at 0.5 at mL/min for 5 minutes. The analytes were monitored on an API5500 triple quadrupole mass spectrometer MS (AB Sciex, Foster City, CA) equipped with a turbo ion spray interface for electrospray ionization and operated in positive ion mode at 5.5 kV and 500° C. at 50 L/min of atomizing gas flow, 50 L/min of turbo ion-spray gas flow, 20 L/min of curtain gas flow, 5.5 kV of ring voltage and 5 Torr of collision gas (nitrogen) pressure. The mass transitions for NIC7, NIC7w and the internal standard were m/z 481.1→165.0 (collision energy, 45 eV), 453.1→165.0 (41.0 eV) and 236.9→194.0 (29 eV), respectively, in the multiple reaction monitoring mode.

[6] = NIC7 100 nmol/g intraperitoneally
[7] = donepezil 1 mg/kg intraperitoneally

T6 sequence (Q96P20 whole entry): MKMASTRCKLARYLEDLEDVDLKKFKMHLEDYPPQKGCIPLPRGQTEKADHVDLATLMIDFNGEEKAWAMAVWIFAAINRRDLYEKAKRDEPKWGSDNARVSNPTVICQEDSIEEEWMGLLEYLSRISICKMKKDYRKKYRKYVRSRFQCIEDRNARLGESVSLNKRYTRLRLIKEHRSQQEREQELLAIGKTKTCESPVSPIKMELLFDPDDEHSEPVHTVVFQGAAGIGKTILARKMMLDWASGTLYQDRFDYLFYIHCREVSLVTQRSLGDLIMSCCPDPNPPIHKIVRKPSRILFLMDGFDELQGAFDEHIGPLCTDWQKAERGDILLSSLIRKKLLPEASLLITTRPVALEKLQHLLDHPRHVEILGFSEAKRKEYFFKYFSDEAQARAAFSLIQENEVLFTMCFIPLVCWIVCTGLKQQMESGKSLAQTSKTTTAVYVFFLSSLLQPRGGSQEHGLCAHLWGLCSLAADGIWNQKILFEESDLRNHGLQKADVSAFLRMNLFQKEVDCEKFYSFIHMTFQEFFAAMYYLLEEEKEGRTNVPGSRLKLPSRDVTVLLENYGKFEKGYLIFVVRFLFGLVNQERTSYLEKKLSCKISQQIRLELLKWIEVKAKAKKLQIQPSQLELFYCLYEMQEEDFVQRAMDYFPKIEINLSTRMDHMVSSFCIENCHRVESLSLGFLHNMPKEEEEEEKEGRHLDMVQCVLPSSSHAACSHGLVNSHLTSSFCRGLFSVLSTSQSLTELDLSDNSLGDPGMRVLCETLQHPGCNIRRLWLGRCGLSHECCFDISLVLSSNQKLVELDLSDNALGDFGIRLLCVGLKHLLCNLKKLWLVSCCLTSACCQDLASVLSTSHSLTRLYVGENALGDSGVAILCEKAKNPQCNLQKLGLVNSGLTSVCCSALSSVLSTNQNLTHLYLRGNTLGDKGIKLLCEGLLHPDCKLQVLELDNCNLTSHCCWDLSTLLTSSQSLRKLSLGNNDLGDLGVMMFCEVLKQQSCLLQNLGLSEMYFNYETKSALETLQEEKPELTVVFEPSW
T3 sequence (P11712 whole entry): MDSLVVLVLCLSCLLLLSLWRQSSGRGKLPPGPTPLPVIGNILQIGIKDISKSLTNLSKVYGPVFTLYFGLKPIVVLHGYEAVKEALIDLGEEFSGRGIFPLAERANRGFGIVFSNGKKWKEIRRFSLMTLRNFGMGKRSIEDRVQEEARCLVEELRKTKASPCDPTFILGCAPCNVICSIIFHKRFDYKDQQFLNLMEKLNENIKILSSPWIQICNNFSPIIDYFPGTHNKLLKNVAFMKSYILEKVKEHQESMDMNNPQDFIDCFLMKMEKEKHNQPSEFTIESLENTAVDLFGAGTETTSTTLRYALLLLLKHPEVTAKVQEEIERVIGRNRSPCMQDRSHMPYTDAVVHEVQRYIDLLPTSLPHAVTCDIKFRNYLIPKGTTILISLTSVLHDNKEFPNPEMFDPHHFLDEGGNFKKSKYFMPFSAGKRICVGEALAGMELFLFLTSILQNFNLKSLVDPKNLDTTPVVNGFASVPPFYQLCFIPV
T2 sequence (P33261 whole entry): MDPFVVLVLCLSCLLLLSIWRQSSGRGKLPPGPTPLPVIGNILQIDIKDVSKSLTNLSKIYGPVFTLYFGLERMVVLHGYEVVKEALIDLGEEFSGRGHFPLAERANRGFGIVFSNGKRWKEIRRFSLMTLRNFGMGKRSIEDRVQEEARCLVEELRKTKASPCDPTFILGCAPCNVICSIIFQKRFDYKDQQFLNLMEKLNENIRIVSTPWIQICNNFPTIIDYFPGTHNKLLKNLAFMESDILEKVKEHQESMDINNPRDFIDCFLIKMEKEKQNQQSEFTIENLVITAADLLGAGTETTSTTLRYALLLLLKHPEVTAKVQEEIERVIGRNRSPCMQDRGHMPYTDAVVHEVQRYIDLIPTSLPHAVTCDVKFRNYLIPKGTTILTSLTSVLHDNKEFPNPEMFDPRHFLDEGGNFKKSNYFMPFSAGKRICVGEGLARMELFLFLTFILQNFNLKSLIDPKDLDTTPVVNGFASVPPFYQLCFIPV
T1 sequence (P08684 whole entry): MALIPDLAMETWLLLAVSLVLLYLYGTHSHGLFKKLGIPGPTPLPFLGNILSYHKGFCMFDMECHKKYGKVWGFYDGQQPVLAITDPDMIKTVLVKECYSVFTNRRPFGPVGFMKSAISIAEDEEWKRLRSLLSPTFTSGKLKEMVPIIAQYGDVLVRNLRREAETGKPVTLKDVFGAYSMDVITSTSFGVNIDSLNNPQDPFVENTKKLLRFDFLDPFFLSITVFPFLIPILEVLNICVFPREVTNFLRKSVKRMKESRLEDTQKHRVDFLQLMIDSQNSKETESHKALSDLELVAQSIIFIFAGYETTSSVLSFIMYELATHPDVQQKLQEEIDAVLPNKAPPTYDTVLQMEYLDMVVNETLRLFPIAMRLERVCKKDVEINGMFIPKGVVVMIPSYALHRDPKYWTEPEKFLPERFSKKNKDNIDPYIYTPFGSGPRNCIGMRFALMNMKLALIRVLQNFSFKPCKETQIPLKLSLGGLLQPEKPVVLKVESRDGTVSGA
T4 sequence (P10635 whole entry): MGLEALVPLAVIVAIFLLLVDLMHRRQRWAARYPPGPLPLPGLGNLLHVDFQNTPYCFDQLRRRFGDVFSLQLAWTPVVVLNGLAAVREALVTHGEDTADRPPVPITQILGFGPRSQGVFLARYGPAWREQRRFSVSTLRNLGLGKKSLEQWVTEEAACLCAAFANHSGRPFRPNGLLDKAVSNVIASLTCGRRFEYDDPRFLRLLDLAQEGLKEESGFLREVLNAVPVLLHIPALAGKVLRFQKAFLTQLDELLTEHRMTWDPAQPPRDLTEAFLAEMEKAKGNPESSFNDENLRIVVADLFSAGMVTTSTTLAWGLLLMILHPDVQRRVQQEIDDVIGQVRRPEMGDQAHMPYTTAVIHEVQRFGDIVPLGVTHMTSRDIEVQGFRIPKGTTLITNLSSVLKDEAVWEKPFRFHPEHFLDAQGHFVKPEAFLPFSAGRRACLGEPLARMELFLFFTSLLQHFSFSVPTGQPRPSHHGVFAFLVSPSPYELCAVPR

## CC1CC(=O)c2s/c(=N\C3CCCCC3)oc2C1 (centres unmarked) [BOT-4-one]
NLRP3, NLRC4
  IC50: 590 to 1280 nM

## Cc1ccc(S(=O)(=O)/C=C/C#N)cc1 [Bay 11-7082]
NLRP3, NLRC4
  IC50: ~5000 nM

## O=C(O)c1ccc(/C=C2/SC(=S)N(Cc3cccc(C(F)(F)F)c3)C2=O)cc1 [CY-09]
NLRP3 [1]
  IC50: ~5000 nM

## O=[N+]([O-])/C=C/c1ccc2c(c1)OCO2 [MNS]
NLRP3 [1]
  IC50: ~2000 nM

## CC(=O)c1cccc(NC(=O)Nc2ccc3sc(NS(=O)(=O)c4ccc(C)cc4)nc3c2)c1 [NIC7, N-(5-(3-(3-acetylphenyl)ureido)benzo[d]thiazol-2-yl)-4-methylbenzenesulfonamide]
CYP3A4
  inhibition at 10 min, 10 µM: < 1%
CYP2C19
  inhibition at 10 min, 10 µM: < 1%
CYP2C9
  CYP enzyme selectivity of inhibition: acted mainly on CYP2C9 enzyme and hardly acted on other types of CYP enzymes
  inhibition at 10 min, 10 µM: 34.2%
CYP2D6
  inhibition at 10 min, 10 µM: 9.8%
CYP1A2
  inhibition at 10 min, 10 µM: < 1%
[2]
  inhibition of IL-1β and caspase 1 (Western blot): inhibition
[3]; [6]
  recognition index rate (novel object recognition test): better
[4]; [6]
  Y-maze test, spatial working memory: spent more time in the novel arm
NLRP3 [5]
  inhibition of IL-1β secretion caused by NLRP3: highest potency; also recorded: significant inhibition
Body weight in AD model
  body weight: significantly increased
Microsomal stability
  metabolic stability versus positive control compound: better half-life and stability than a positive control compound
  Microsomal stability (% at 30 min): Human: 19.7%

## Cc1ccc(S(=O)(=O)Nc2nc3cc(NC(=O)NCc4ccccc4)ccc3s2)cc1 [NIC7w, N-(5-(3-benzylureido)benzo[d]thiazol-2-yl)-4-methylbenzenesulfonamide]
CYP3A4
  inhibition at 10 min, 10 µM: < 1%
CYP2C19
  inhibition at 10 min, 10 µM: 15.4%
CYP2C9
  CYP enzyme selectivity of inhibition: acted mainly on CYP2C9 enzyme and hardly acted on other types of CYP enzymes
  inhibition at 10 min, 10 µM: 39.4%
CYP2D6
  inhibition at 10 min, 10 µM: 9.1%
CYP1A2
  inhibition at 10 min, 10 µM: < 1%
[2]
  inhibition of IL-1β and caspase 1 (Western blot): inhibition
NLRP3 [5]
  inhibition of IL-1β secretion caused by NLRP3: most potent inhibition; also recorded: in a dose-dependent manner, more strongly and significantly than NIC7
Microsomal stability
  metabolic stability versus positive control compound: better half-life and stability than a positive control compound
  Microsomal stability (% at 30 min): Human: 49.5%
Microsomal stability; human liver microsomes
  increase of amount of drug remaining after 30 minutes of metabolism compared to NIC7: 29.8%

## CS(=O)(=O)CCC#N [OLT1177]
NLRP3 [1]
  IC50: ~1000 nM

## COc1cc2c(cc1OC)C(=O)C(CC1CCN(Cc3ccccc3)CC1)C2 (centres unmarked) [donepezil, reference compound]
[3]; [7]
  recognition index rate (novel object recognition test): better
[4]; [7]
  Y-maze test, spatial working memory: spent more time in the novel arm

## NBC6
NLRP3 [1]
  IC50: ~574 nM
